Several values for one entry are separate records, joined by “and”; a condition that tells them apart may be missing. Equal values may be shown once.

`COc1cc(OC)c(NC(=O)c2ccc(Cc3cc4c(cc3C)[Si](C)(C)CC[Si]4(C)C)o2)c(OC)c1`: the melting point was 139 °C and 139 to 140 °C.

(Values after patent US20060052344A1, “Heterocyclic silicon compounds and their use in the treatment of diseases or conditions associated with gnrh (gonadotropin-releasing hormone)” (priority 2002, published 2006).)
